Earlier results in publication PMC10071776, “Binding proteins of destruxin A from Metarhizium against insect cell” (BMC Microbiology, 2023).
Where a SMILES comes first, the peptide text is derived from it. [ ]: non-standard residue; d: D form. dLac(3-vinyl) = C=CC[C@@H](O)C(=O)O; NMeV = CN[C@H](C(=O)O)C(C)C; NMeA = CN[C@@H](C)C(=O)O; βAla = NCCC(=O)O

Columns and labels:
hemocyte ATPase = details: higher than DA; ref [13]
Source text: (§1) The multi-target strategy of destruxin has resulted from the evolution of interactions between Metarhizium spp. and insects. When Metarhizium spp. invades a host insect, it secretes a variety of structurally similar destruxins that attack as many tissues and organs. These produce a diseased state, weakening insect resistance and enabling successfully fungus colonization.

insects = details: no reference given
Source text: as §1

tumor = details: no reference given
Source text: as §1

[1] = stated in SPR method; no measurement described, no reference given

| Compound | affinity of DB relative to DA (hemocyte ATPase) [times] | insecticidal activity relative to DA (insects) | antitumor activity relative to DA (tumor) | solubility in water [1] |
| --- | --- | --- | --- | --- |
| destruxin B [DB] | 100 | lower insecticidal activity than DA | greater antitumor activity than DA |  |
| C=CC[C@H]1OC(=O)CCNC(=O)[C@H](C)N(C)C(=O)[C@H](C(C)C)N(C)C(=O)[C@H]([C@@H](C)CC)NC(=O)[C@@H]2CCCN2C1=O [DA, Destruxin A] (cyclo(I[NMeV][NMeA][βAla][dLac(3-vinyl)]P)) |  |  |  | insoluble in water |
